According to BindingDB's records for doi:10.1016/j.bioorg.2014.02.002 (Swami Ramanand Teerth Marathwada University, 2014):
Several values for one entry are separate records, joined by “and”; a condition that tells them apart may be missing. Equal values may be shown once.

Each compound was assayed against Aldose reductase (Capra hircus) (assay: The reaction mixture contained 1 mL of 1 M potassium phosphate buffer (pH 6.2), 0.4 mM lithium sulfate and 5 µM 2-mercaptoethanol, 10 µM DL-glyceraldehyde, […], and crude enzyme. The reaction mixture was incubated at 37 °C for 10 min. The reaction was initiated by the addition of NADPH and the decrease in absorbance was measured a).

| IC50 | Structure (SMILES) |
| --- | --- |
| 9.2 µM | NC1=NNC(=O)C1=Cc1cn(-c2ccccc2)nc1-c1ccc(Cl)cc1 [(4E)‐5‐amino‐4‐{[3‐(4‐chlorophenyl)‐1‐ phenylpyrazol‐4‐yl]methylidene}‐2H‐pyrazol‐3‐one (1e)] |
| 8.1 µM | COc1ccc(-c2cc(C=C3C(=O)N(C(N)=S)N=C3N)n(-c3ccccc3)n2)cc1 [(4Z)‐3‐amino‐4‐{[5‐(4‐methoxyphenyl)‐2‐ phenylpyrazol‐3‐yl]methylidene}‐5‐oxopyrazole‐1‐ carbothioamide (2d)] |
| 6.3 µM | NC(=S)N1N=C(N)C(=Cc2cn(-c3ccccc3)nc2-c2ccc(Cl)cc2)C1=O [(4E)‐3‐amino‐4‐{[3‐(4‐chlorophenyl)‐1‐ phenylpyrazol‐4‐yl]methylidene}‐5‐oxopyrazole‐1‐ carbothioamide (2e)] |
| 11.9 µM and 12.8 µM | NC(=S)N1C=C(N)C(=Cc2ccc(F)cc2)C1=O [(3Z)‐4‐amino‐3‐[(4‐methoxyphenyl)methylidene]‐2‐ oxopyrrole‐1‐carbothioamide (2c)] |
